For series [1], the target named is PSMA (Homo sapiens, UniProt Q04609). The series can be described thus: PSMA competitive binding, PC-3 PIP cells with [125I]MIP-1095. More on the design: expressed in transfected cells; host or cells: PC-3 PIP cells. The procedure: In vitro binding assays were carried out to determine the PSMA binding affinity of various compounds. By incubating PSMA positive cells either with: 1). LNCaP with 0.2 nM [^68Ga]PSMA-11 or [^125I]MIP-1095, as the ligand, in the presence of 10 different concentrations of competing ligands; non-specific binding was defined with 20 μM 2-PMPA (2-(phosphonomethyl)pentanedioic acid); or 2). PC-3 PIP cells with [^125I]MIP-1095 (0.18 nM diluted in PBS) in presence of different concentration of test compounds ([…] diluted in PBS containing 0.1% bovine serum albumin). Nonspecific binding (NSB) was defined with 2 μM the known PSMA inhibitor, PSMA-617. After incubation at 37° C. for 1 h, the bound and free fractions were separated by vacuum filtration through GF/B filters using a Brandel M-24R cell harvester. The filters were washed twice with cold Tris-HCl buffer (50 mM, pH=7.4), and the radioactivity on the filters was counted in a gamma counter (Wizard^2, Perkin-Elmer) with 50% efficiency. The nonspecific bound was less than 10% of the total bound. Data were analyzed using GraphPad Prism 6.0 with a nonlinear regression algorithm to obtain the half maximal inhibitory concentration (IC50).
The binding affinities to PSMA of the test compounds were measured by a competitive binding assay using either LNCap or PC-3 PIP cells suspension and the known radiotracers known to have high affinity and specificity to PSMA, [^68Ga]PSMA-11 or [^125I]MIP-1095. The IC50 values of four iodinated compounds, three DOTA, DOTAG and DOTA(GA)2 related compounds and two known PSMA inhibitors are shown in Table 1. Complexes of compound 4 and natural Ga and natural Lu were also tested. […] After labeling with radioisotope they are expected to bind to the tumor tissues over expressing PSMA binding sites.

Series [2] has as its system PIP tumor and PC3 tumor. Briefly: Biodistribution of 125I labeled compounds 17, 18, 26 and 27 in tumor bearing nude mice. It counts as in vivo. The note with it: for Biodistribution: Bladder* / Biodistribution: Stomach* / Biodistribution: large intestine* / Biodistribution: small intestine*: organ with content; for PIP/blood / PIP/muscle: ratio. The procedure: Radioiodination and Purification: 100 μg of either precursor 13, 14, 22 or 23 were dissolved in 100 μL EtOH; 22 μL Na^125I (1033-1118 μCi in 0.1 N NaOH), 100 μL 1N HCl and 100 μL 3% H2O2 were added. After 15 minutes at room temperature, the reaction was stopped by adding 150 μL sat. NaHSO3. The reaction mixture was slowly added to 1.5 mL sat. NaHCO3. Vial was rinsed with 1000 μL EtOH and mixture was diluted further to 10 mL mL water. The active sample was transferred onto an activated C4 mini column. The mixture was pushed through, washed twice with 3 mL water and the product was eluted with 1 mL ACN. Added 100 μL DMSO. The mixture was concentrated to ˜100 μL and purified by HPLC (Agilent Eclipse XCD C18 150×4.6 mm, 5 μm; 4 mL/min, gradient (ACN and water; 0-1 min (20/80), 1-16 min (20/80-100/0), 16-16.5 min (100/0-20/80), 16.5-20 min 20/80) (collected every minute). The sample was blown to dryness under argon, re-dissolved in 500 μL CH2Cl2 and 1 mL TFA was added at room temperature. After 1 hr the solution was blown to dryness and activity taken into 1 mL EtOH (10 μL saturated ascorbic acid/EtOH was added). Isolated activities for [^125I]17, 18, 26, and 27 were 197, 189, 600 and 197 μCi respectively. A representative picture of HPLC profiles (FIG. 3) for radiolabeled protected (intermediate), cold standard and radioactive trace of final compound is shown for [^125I]26.
For iv injection 150 μL of labeled solution was diluted with saline to 3.75 mL. Mice were injected with 2˜3 μCi of [^125I]18, 27, 26, and 18 in 0.15 mL saline. Injected radioactivity was 2 to 3 μCi.
Biodistribution study of [^125I]18, 27, 26, and 18 in tumor bearing nude mice were evaluated for their ability to localization of PSMA positive tumor (Tables 5, 6, 7 and 8). It was observed that [^125I]26 and [^125I] […] These new agents are valuable for radionuclide therapy, when labeled with beta or alpha-emitting isotopes; but these agents will also be useful as diagnostic agents when labeled with gamma-emitting isotopes.

Setting [3] is: n = 3 (a: n = 2), read-out: IC50 *(PC-3 PIP cells and [125I]MIP-1095).

Structures are written as SMILES. Like-named read-outs stand apart in the source and are kept apart here.

Chain of PSMA (Q04609 whole entry, species assumed): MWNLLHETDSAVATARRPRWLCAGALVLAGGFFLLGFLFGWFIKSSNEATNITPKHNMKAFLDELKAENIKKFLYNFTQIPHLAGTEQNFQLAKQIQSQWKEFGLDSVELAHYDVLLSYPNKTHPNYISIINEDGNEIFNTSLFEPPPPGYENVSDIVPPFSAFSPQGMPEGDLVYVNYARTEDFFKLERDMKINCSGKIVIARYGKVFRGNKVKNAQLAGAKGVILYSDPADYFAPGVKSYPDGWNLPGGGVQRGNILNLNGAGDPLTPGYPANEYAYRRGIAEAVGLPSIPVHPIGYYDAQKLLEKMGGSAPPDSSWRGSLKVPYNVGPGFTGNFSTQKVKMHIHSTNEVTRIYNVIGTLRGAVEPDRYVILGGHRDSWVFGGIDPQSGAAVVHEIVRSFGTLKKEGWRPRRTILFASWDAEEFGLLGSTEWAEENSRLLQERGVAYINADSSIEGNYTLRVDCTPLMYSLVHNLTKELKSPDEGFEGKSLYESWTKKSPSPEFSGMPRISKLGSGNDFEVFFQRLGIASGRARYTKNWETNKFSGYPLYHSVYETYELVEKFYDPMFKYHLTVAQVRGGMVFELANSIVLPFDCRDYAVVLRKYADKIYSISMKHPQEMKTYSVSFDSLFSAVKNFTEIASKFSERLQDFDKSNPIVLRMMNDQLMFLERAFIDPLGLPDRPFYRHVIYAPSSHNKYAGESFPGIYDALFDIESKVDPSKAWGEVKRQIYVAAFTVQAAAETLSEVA

On to `O=C(O)CC[C@H](NC(=O)N[C@@H](CCCCNC(=O)[C@H](Cc1ccccc1)NC(=O)[C@H](CCC(=O)O)NC(=O)c1ccc(I)cc1)C(=O)O)C(=O)O` [Compound 17, (((S)-1-Carboxy-5-((S)-2-((S)-4-carboxy-2-(4-iodobenzamido)butanamido)-3-phenylpropanamido)pentyl)carbamoyl)-L-glutamic acid], for which the IC50 (commonly the concentration needed to halve the response being measured) in series [1] (setting [3]) amounted to 2.63 ± 0.13 nM.

Consider `O=C(O)CC[C@H](NC(=O)N[C@@H](CCCCNC(=O)[C@H](Cc1ccccc1)NC(=O)[C@H](CCC(=O)O)NC(=O)[C@H](CCC(=O)O)NC(=O)c1ccc(I)cc1)C(=O)O)C(=O)O` [Compound 18, (((S)-1-Carboxy-5-((S)-2-((S)-4-carboxy-2-((S)-4-carboxy-2-(4-iodobenzamido)butanamido)butanamido)-3-phenylpropanamido)pentyl)carbamoyl)-L-glutamic acid], for which, in series [1] (setting [3]), the IC50 came out at 1.99 ± 0.06 nM.

Regarding `O=C(O)CC[C@H](NC(=O)N[C@@H](CCCCNC(=O)[C@H](Cc1ccccc1)NC(=O)COc1ccc(C[C@H](NC(=O)[C@H](CCC(=O)O)NC(=O)c2ccc(I)cc2)C(=O)O)cc1)C(=O)O)C(=O)O` [Compound 26, (((S)-1-Carboxy-5-((S)-2-(2-(4-((S)-2-carboxy-2-((S)-4-carboxy-2-(4-iodobenzamido)butanamido)ethyl)phenoxy)acetamido)-3-phenylpropanamido)pentyl)carbamoyl)-L-glutamic acid], in series [1] (setting [3]), the IC50 amounted to 4.74 ± 0.37 nM.

As to `O=C(O)CCC(C(=O)O)N1CCN(CC(=O)O)CCN(C(CCC(=O)N[C@@H](CCC(=O)O)C(=O)N[C@@H](CCC(=O)O)C(=O)N[C@@H](Cc2ccc(OCC(=O)N[C@@H](Cc3ccccc3)C(=O)NCCCC[C@H](NC(=O)N[C@@H](CCC(=O)O)C(=O)O)C(=O)O)cc2)C(=O)O)C(=O)O)CCN(CC(=O)O)CC1` (stereo partly drawn) [Compound 29, (((1S)-5-((2S)-2-(2-(4-((2S)-2-((2S)-2-((2S)-2-(4-(4,10-Bis(carboxymethyl)-7-(1,3-dicarboxypropyl)-1,4,7,10-tetraazacyclododecan-1-yl)-4-carboxybutanamido)-4-carboxybutanamido)-4-carboxybutanamido)-2-carboxyethyl)phenoxy)acetamido)-3-phenylpropanamido)-1-carboxypentyl)carbamoyl)-L-glutamic acid], the 50% inhibitory concentration (IC50) in series [1] (setting [3]) was determined as 22.6 ± 1.59 nM.

Take `O=C(O)CC[C@H](NC(=O)N[C@@H](CCCCNC(=O)[C@H](Cc1ccccc1)NC(=O)COc1ccc(C(=O)NCCCC[C@H](NC(=O)CNC(=O)CCC(C(=O)O)N2CCN(CC(=O)O)CCN(CC(=O)O)CCN(CC(=O)O)CC2)C(=O)O)cc1)C(=O)O)C(=O)O` (stereo partly drawn) [Compound 38, (((1S)-1-Carboxy-5-((2S)-2-(2-(4-(((5S)-5-carboxy-5-(2-(4-carboxy-4-(4,7,10-tris(carboxymethyl)-1,4,7,10-tetraazacyclododecan-1-yl)butanamido)acetamido)pentyl)carbamoyl)phenoxy)acetamido)-3-phenylpropanamido)pentyl)carbamoyl)-L-glutamic acid]: the IC50 in series [1] (setting [3]) came to 28.1 ± 0.85 nM.

In the case of `O=C(O)CCc1ccc(O)c(CN(CCN(CC(=O)O)Cc2cc(CCC(=O)NCCCCCC(=O)NCCCC[C@H](NC(=O)N[C@@H](CCC(=O)O)C(=O)O)C(=O)O)ccc2O)CC(=O)O)c1` [PSMA-11, Glu-NH—CO—NH-Lys-(Ahx)-(HBED-CC), reference compound], the IC50 in series [1] (setting [3]) is 47.8 ± 3.16 nM.

In the case of `O=C(O)CC[C@H](NC(=O)N[C@@H](CCCCNC(=O)[C@H](Cc1ccccc1)NC(=O)COc1ccc(C[C@H](NC(=O)[C@H](CCC(=O)O)NC(=O)[C@H](CCC(=O)O)NC(=O)c2ccc([125I])cc2)C(=O)O)cc1)C(=O)O)C(=O)O` [[^125I]27], in series [2] (1 h), the “Biodistribution: Blood” value is reported as 0.47 ± 0.07 % ID/g, the “Biodistribution: Bone” value turned out to be 0.94 ± 0.21 % ID/g, the “Biodistribution: Heart” value came to 2.60 ± 0.10 % ID/g and the “Biodistribution: Kidney” value came out at 127.77 ± 8.24 % ID/g. In series [2] (1 h), the “Biodistribution: Liver” value was 1.72 ± 0.11 % ID/g, the “Biodistribution: Lung” value turned out to be 3.53 ± 1.35 % ID/g, the “Biodistribution: Muscle” value was determined as 1.05 ± 0.07 % ID/g and the “Biodistribution: PC3 tumor” value is 1.99 ± 0.17 % ID/g. Besides, in series [2] (1 h), the “Biodistribution: PIP tumor” value worked out at 17.19 ± 3.74 % ID/g, the “Biodistribution: Pancreas” value is listed as 1.32 ± 0.46 % ID/g, the “Biodistribution: Skin” value is reported as 2.68 ± 0.47 % ID/g and the “Biodistribution: Spleen” value is reported as 12.25 ± 3.36 % ID/g. In series [2] (1 h), the “Biodistribution: gland” value turned out to be 3.59 ± 1.03 % ID/g, the “Biodistribution: thyroid” value was found to be 39.72 ± 12.95 % ID/g, the “Biodistribution: Bladder*” value was determined as 53.39 ± 19.82 % ID/g and the “Biodistribution: Stomach*” value is 0.55 ± 0.21 % ID/g. In series [2] (1 h), the “Biodistribution: large intestine*” value stood at 1.13 ± 0.52 % ID/g, the “Biodistribution: small intestine*” value amounted to 1.52 ± 0.45 % ID/g, the PIP/blood was 36.90 ± 8.14 and the PIP/muscle is on record as 16.57 ± 4.28. Further, in series [2] (4 h), the “Biodistribution: Blood” value worked out at 0.32 ± 0.12 % ID/g, the “Biodistribution: Bone” value is 0.56 ± 0.05 % ID/g, the “Biodistribution: Heart” value is listed as 1.36 ± 0.33 % ID/g and the “Biodistribution: Kidney” value was found to be 138.08 ± 31.03 % ID/g. In series [2] (4 h), the “Biodistribution: Liver” value was 1.28 ± 0.63 % ID/g, the “Biodistribution: Lung” value worked out at 1.86 ± 0.24 % ID/g, the “Biodistribution: Muscle” value was found to be 0.69 ± 0.21 % ID/g and the “Biodistribution: PC3 tumor” value was 1.67 ± 0.44 % ID/g. In series [2] (4 h), the “Biodistribution: PIP tumor” value came out at 17.36 ± 2.57 % ID/g, the “Biodistribution: Pancreas” value was found to be 1.07 ± 0.31 % ID/g, the “Biodistribution: Skin” value came out at 2.03 ± 0.39 % ID/g and the “Biodistribution: Spleen” value turned out to be 13.16 ± 4.01 % ID/g. Further, in series [2] (4 h), the “Biodistribution: gland” value is recorded as 3.57 ± 0.54 % ID/g, the “Biodistribution: thyroid” value is 60.34 ± 22.28 % ID/g, the “Biodistribution: Bladder*” value is 38.17 ± 21.99 % ID/g and the “Biodistribution: Stomach*” value is 0.96 ± 0.55 % ID/g. Besides, in series [2] (4 h), the “Biodistribution: large intestine*” value was determined as 1.35 ± 0.48 % ID/g, the “Biodistribution: small intestine*” value is on record as 0.83 ± 0.34 % ID/g, the PIP/blood turned out to be 58.93 ± 20.54 and the PIP/muscle is reported as 27.34 ± 10.28. In series [2] (mouse, in vivo), the Liver uptakes result is “low”; the “Uptakes in PIP tumors, kidneys and spleen compared to [125I]17 and [125I]18” value is “higher uptakes”.

On to `O=C([O-])CN1CCN(C(CCC(=O)NCC(=O)N[C@@H](Cc2ccc(OCC(=O)N[C@@H](Cc3ccccc3)C(=O)NCCCC[C@H](NC(=O)N[C@@H](CCC(=O)O)C(=O)O)C(=O)O)cc2)C(=O)O)C(=O)[O-])CCN(CC(=O)[O-])CCN(C(CCC(=O)O)C(=O)O)CC1.[Ga+3]` (stereo partly drawn) [[^natGa]4, (4S,11S,15S)-4-benzyl-1-(4-((2S)-2-(2-(4-(4,10-bis(carboxymethyl)-7-(1,3-dicarboxypropyl)-1,4,7,10-tetraazacyclododecan-1-yl)-4-carboxylatebutanamido)acetamido)-2-carboxyethyl)phenoxy)-2,5,13-trioxo-3,6,12,14-tetraazaheptadecane-11,15,17-tricarboxylate gallium], for which the IC50 in series [1] (setting [3]) was found to be 22.2 ± 2.1 nM.

The compound `O=C(O)CC[C@H](NC(=O)N[C@@H](CCCCNC(=O)[C@H](Cc1ccccc1)NC(=O)COc1ccc(C[C@H](NC(=O)CNC(=O)CCC2C(=O)[O][Lu-4]345678[O]C(=O)CN9CC[N+]23CC[N+]4(CC[N+]5(CC9)C(CCC(=O)[OH+]6)C(=O)[O]7)CC(=O)[O]8)C(=O)O)cc1)C(=O)O)C(=O)O` (some centres unmarked) [[^natLu]4] came in with an IC50 in series [1] of 18.7 ± 0.3 nM.

Values taken from patent US20220125959A1, “PROSTATE-SPECIFIC MEMBRANE ANTIGEN (PSMA) INHIBITORS AS DIAGNOSTIC AND RADIONUCLIDE THERAPEUTIC AGENTS” (FIVE ELEVEN PHARMA INC., priority 2019, published 2022).
